Assay results reported in BindingDB's records for doi:10.1016/j.bmcl.2021.127992 (Kyung Hee University, 2021).

Target: T1, Prostaglandin E synthase (Homo sapiens, UniProt O14684)
T1 sequence (O14684 whole entry): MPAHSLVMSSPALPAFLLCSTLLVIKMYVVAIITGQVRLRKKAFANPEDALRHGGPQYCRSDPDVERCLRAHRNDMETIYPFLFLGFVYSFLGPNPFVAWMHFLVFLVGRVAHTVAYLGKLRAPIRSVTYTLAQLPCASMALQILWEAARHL
Assay: Inhibition of mPGES-1 in human A549 cells assessed as reduction in IL-1beta stimulated […] production

Compound | IC50 [nM]
O=C(Oc1ccc(OCc2ccccc2)cc1)N(Nc1ccccc1)S(=O)(=O)c1ccc(Cl)cc1 | 250
O=C(Oc1ccc(OCc2ccccc2)cc1)N(Cc1ccccc1)S(=O)(=O)c1ccc(Cl)cc1 | 2000
O=C(Nc1ccc(OCCCCc2ccccc2)cc1)N(Cc1ccccc1)S(=O)(=O)c1ccc(Cl)cc1 | 1000
